Measurements taken from patent publication US7354711B2, “Methods for inhibiting immunostimulatory DNA associated responses” (University of Iowa Research Foundation, priority 1997, dated 2008).

Columns and labels:
Type in all cases: cell-based, mouse
[1] = test system: WEHI 231 cells; experiment: Protection by ODN 1760 against C2-ceramide-induced inhibition of [3H] thymidine uptake; details: 0.1 μM quinacrine, 6 μg/mL ODN
Experimental: The assay of [^3H] Thymidine incorporation was carried out as follows. WEHI 231 cells (200 μL at 2×10^5/milliliter, in duplicate or triplicate) were incubated in a 96-well plate (Costar, Cambridge Mass.). Additions were made as indicated. After incubating for 16 hours, 0.5 μCi [methyl-^3H] thymidine (2 Ci/millimole, DuPont NEN, Boston Mass.) was added to each well, and the cells were incubated for another 4 hours. Cellular DNA was then captured onto glass fiber filters (Whatman 934AH) using a cell harvester (Brandel, Gaithersberg Md.). The filters were dried, placed into plastic scintillation vials with 10 milliliters of scintillation cocktail (EconoSafe, Research Products International, Mount Prospect Ill.), and counted in a liquid scintillation counter (Beckman LS-3133 T). The ^3H recovered on the filter was expressed as a fraction of the ^3H added. In a typical experiment, WEHI 231 cells incorporate about 15% of added ^3H.
Referring to the experiments summarized in FIG. 6, WEHI 231 cells were incubated with C2-ceramide as indicated with or without 6 μgrams/milliliter ODN and 0.1 μM quinacrine and thymidine incorporation was estimated. Referring to the experiments summarized in FIG. 7, WEHI 231 cells were prelabeled with 0.5 μCi/milliliter [^3H] thymidine for 3 hours, and resuspended in fresh medium containing 10 nM thapsigargin. […]

[2] = test system: 7TD1 cells; experiment: Inhibition of 7TD1 cell growth
Experimental: One particularly useful cell line for the assay of immunostimulatory DNA action is the mouse-mouse hybridoma plasma cell line 7TD1(ATTC #CRL 1851), which requires exoqenous IL-6 for growth, and has been used to characterize and assay IL-6 (Papadopolous et al., 1995. J. Clin. Lab. Anal. 9:234-7; Krakauer, 1993. J. Immunoassay 14:267-77).
The 7TD1 cells were grown in RPMI 1640 supplemented with 10% fetal bovine serum (heat inactivated at 65° C., 1 hour), 0.3 grams/Liter L-glutamine, 50 milligrams/Liter gentamycin, 0.05 mM 2-mercaptoethanol, and 10 units per milliliter murine IL-6 in a 37° C. humid atmosphere with 5% CO2. Viable 7TD1 cells were counted in a hemocytometer chamber in duplicate after dilution with 0.4% trypan blue.
The 7TD1 cells were incubated for five days and were washed twice with medium to remove IL-6, and resuspended at 2×10^4 per milliliter in medium. Cell counts were performed and the percent inhibition of growth was computed. The term “anti” refers to 40 nanograms/milliliter neutralizing antibody to IL-6.

[3] = test system: WEHI 231 cells; experiment: Protection by ODN against thapsigargin-induced DNA fragmentation; details: 0.1 μM quinacrine, 10 nM thapsigargin, 24 hours
Experimental: The DNA fragmentation assay was carried out generally as follows. WEHI 231 cells were incubated with 0.5 μCi/milliliter [^3H] thymidine for 3 hours, centrifuged, resuspended in 2 milliliters of fresh medium at 2×10^5/milliliter, and incubated in a 24-well plate with additions as indicated. After incubation for 16-18 hours, 1 milliliter aliquots of the cells were centrifuged, washed with 200 μliters PBS. This suspension was drawn into a pipette tip containing 25 μliters of 2% SDS, and the mixture was immediately ejected into a well of a 0.8% agarose TBE gel containing 0.5 μliter/milliliter ethidium bromide. The gel was electrophoresed for 1 hour at 65 volts, destained in water, and photographed under ultraviolet light. The lanes of the gel were cut into three approximately equal portions. The first portion included the gel well and the first 2 millimeters of the running lane. The second and third pieces were the remainder of the lane. The gel portions were melted in glass scintillation vials and mixed with a 20 milliliter of scintillation cocktail and counted in a scintillation counter. The amount of fragmented DNA (DNA in the second and third gel pieces) was expressed as a percentage of the total counts recovered in the lane. […]

[4] = 6 μg/mL ODN 1760, 0.1 μM compound
[5] = 6 μg/mL ODN 1760, 0.3 μM compound
[6] = 6 μg/mL ODN 1760, 1 μM compound
[7] = 10 μg/mL IL-6 + 0.1 μM compound
[8] = 10 μg/mL IL-6 + 0.3 μM compound

## CCN(CC)CCCC(C)Nc1c2ccc(Cl)cc2nc2ccc(OC)cc12 (stereo not shown) [quinacrine]
[1]
  Block of ODN 1760 protection against C2-ceramide (FIG. 6): blocked this protective effect
[2]; [4]
  7TD1 cells/μL: 20 cells/μL
  % Growth Inhibition: 95%
[2]; [5]
  7TD1 cells/μL: 20 cells/μL
  % Growth Inhibition: 95%
[2]; [6]
  7TD1 cells/μL: 15 cells/μL
  % Growth Inhibition: 96.3%
[2]; [7]
  7TD1 cells/μL: 707 cells/μL
  % Growth Inhibition: 20.2%
[2]; [8]
  7TD1 cells/μL: 595 cells/μL
  % Growth Inhibition: 32.9%
[2]; 10 μg/mL IL-6 + 1 μM compound
  7TD1 cells/μL: 587 cells/μL
  % Growth Inhibition: 33.8%
[2]; 7TD1 cells, IL-6
  Effect on IL-6-induced growth: little effect
[2]; 7TD1 cells, ODN 1760
  Effect on growth stimulation by CpG-ODN: blocked
[3]
  Block of ODN 1760 protection against thapsigargin-induced DNA fragmentation (FIG. 7): blocked the protective effect
